Among the data in patent EP0788498B1, “PHENYLOXAZOLIDINONE ANTIMICROBIALS” (priority 1994, dated 1996) are MIC values, retold here.

For one test, the system named is S. aureus UC® 9213. Description: Minimum inhibitory concentration (MIC) by agar dilution. The conditions noted are these: Staphylococcus aureus. Format: cell-based. An excerpt: (§1) The oxazolidinone antibacterial agents of this invention have useful activity against a variety of organisms. The in vitro activity of compounds of this invention can be assessed by standard testing procedures such as the determination of minimum inhibitory concentration (MIC) by agar dilution as described in "Methods for Dilution Antimicrobial Susceptibility Tests for Bacteria That Grow Aerobically" (MFT) published Jan. 1983 by the National Committee for Clinical Laboratory Standards, 771 East Lancaster Avenue, Villanova, Pennsylvania 19084, USA. The activity of selected compounds of this invention against Staphylococcus aureus and Streptococcus pneumoniae are shown in Table 1.
Background: In agar dilution the substance is mixed into plates at graded concentrations.

A further test concerns S. pneumoniae UC® 9912. The test is described as above. Format: cell-based. The conditions noted are these: Streptococcus pneumoniae.
Description: as §1

[1] abbreviates: UC9213, in vitro, agar dilution, strain UC® 9213, read-out: Minimum Inhibitory Concentration S. aureus UC® 9213.
The mark [2] stands for this setting: UC9912, in vitro, agar dilution, strain UC® 9912, read-out: Minimum Inhibitory Concentration S. pneumoniae UC® 9912.

≈ marks a conversion by molar mass, not a printed value. Like-named read-outs stand apart in the source and are kept apart here.

`COC(=O)N[C@H]1CN(c2ccc(N3C[C@H](CNC(C)=O)OC3=O)cc2F)C[C@H]1C` (relative stereo) [Example 14]: the MIC in the test on S. aureus UC® 9213 (setting [1]) worked out at 4 µg/mL (≈ 9.79 µM); in the test on S. pneumoniae UC® 9912 (setting [2]) it was 1 µg/mL (≈ 2.45 µM).

In the case of `CC(=O)NC[C@H]1CN(c2ccc(N3C[C@@H](C)[C@@H](NC(=O)CO)C3)c(F)c2)C(=O)O1` (relative stereo) [Example 15], the MIC with S. aureus UC® 9213 (setting [1]) came out at 16 µg/mL (≈ 39.2 µM); in the test with S. pneumoniae UC® 9912 (setting [2]), 2 µg/mL (≈ 4.9 µM).

`CC(=O)NC[C@H]1CN(c2ccc(N3C[C@@H](C)[C@@H](NS(C)(=O)=O)C3)c(F)c2)C(=O)O1` (relative stereo) [Example 16]: the MIC in the test on S. aureus UC® 9213 (setting [1]) turned out to be 8 µg/mL (≈ 18.7 µM); with S. pneumoniae UC® 9912 (setting [2]) it was 1 µg/mL (≈ 2.33 µM).

Consider `COC1CN(c2ccc(N3C[C@H](CNC(C)=O)OC3=O)cc2F)C1` [Example 1, (S)-N-[[3-[3-fluoro-4-(3-methoxy-1-azetidinyl]phenyl]-2-oxo-5-oxazolidinyl]methyl]acetamide], for which the figures for the MIC in the test on S. aureus UC® 9213 (setting [1]) and in the test on S. pneumoniae UC® 9912 (setting [2]) were 4 µg/mL (≈ 11.9 µM) and 2 µg/mL (≈ 5.93 µM), respectively.

With `CC(=O)NC[C@H]1CN(c2ccc(N3CC(O)C3)c(F)c2)C(=O)O1` [Example 2, (S)-N-[[3-[3-fluoro-4-(3-hydroxy-1-azetidinyl)phenyl]-2-oxo-5-oxazolidinyl]methyl]acetamide], the MIC with S. aureus UC® 9213 (setting [1]) was found to be 4 µg/mL (≈ 12.4 µM); in the test on S. pneumoniae UC® 9912 (setting [2]) it was 2 µg/mL (≈ 6.19 µM).

On to `CC(=O)NC[C@H]1CN(c2ccc(N3CC(N(C)CCF)C3)c(F)c2)C(=O)O1` [Example 3, (S)-N-[[3-[3-fluoro-4-[3-[N-(2-fluoroethyl)-N-methylamino]-1-azetidinyl]phenyl]-2-oxo-5-oxazolidinyl]methyl]acetamide], for which the MIC in the test with S. aureus UC® 9213 (setting [1]) was found to be 16 µg/mL (≈ 41.8 µM); in the test on S. pneumoniae UC® 9912 (setting [2]), 8 µg/mL (≈ 20.9 µM).

`CC(=O)NC[C@H]1CN(c2ccc(N3CC(=O)C3)c(F)c2)C(=O)O1` [Example 4, (S)-N-[[3-[3-fluoro-4-(3-oxo-1-azetidinyl)phenyl]-2-oxo-5-oxazolidinyl]methyl]acetamide]: the results for the MIC in the test on S. aureus UC® 9213 (setting [1]) and in the test with S. pneumoniae UC® 9912 (setting [2]) were 1 µg/mL (≈ 3.11 µM) and 0.5 µg/mL (≈ 1.56 µM), respectively.

As to `CON=C1CN(c2ccc(N3C[C@H](CNC(C)=O)OC3=O)cc2F)C1` [Example 5, (S)-N-[[3-[3-fluoro-4-[3-(methoxyimino)-1-azetidinyl]phenyl]-2-oxo-5-oxazolidinyl]methyl]acetamide], the MIC worked out at 4 µg/mL (≈ 11.4 µM) in the test with S. aureus UC® 9213 (setting [1]) and 1 µg/mL (≈ 2.85 µM) in the test on S. pneumoniae UC® 9912 (setting [2]).

For `COC1(C)CN(c2ccc(N3C[C@H](CNC(C)=O)OC3=O)cc2F)C1` [Example 6, (S)-N-[[3-[3-fluoro-4-(3-methoxy-3-methyl-1-azetidinyl)phenyl]-2-oxo-5-oxazolidinyl]methyl]acetamide], the MIC in the test with S. aureus UC® 9213 (setting [1]) was found to be 8 µg/mL (≈ 22.8 µM); in the test on S. pneumoniae UC® 9912 (setting [2]) it was 4 µg/mL (≈ 11.4 µM).

As for `CC(=O)NC[C@H]1CN(c2ccc(N3CC(C)(O)C3)c(F)c2)C(=O)O1` [Example 7, (S)-N-[[3-[3-fluoro-4-(3-hydroxy-3-methyl-1-azetidinyl)phenyl]-2 oxo-5-oxazolidinyl]methyl]acetamide], the MIC in the test on S. aureus UC® 9213 (setting [1]) came out at 8 µg/mL (≈ 23.7 µM); in the test with S. pneumoniae UC® 9912 (setting [2]) it was 2 µg/mL (≈ 5.93 µM).

With `CC(=O)NC[C@H]1CN(c2ccc(N3C[C@@H]4OC(C)(C)O[C@@H]4C3)c(F)c2)C(=O)O1` [Example 8, (S)-N-[[3-[4-(1-Aza-5,5-dimethyl-4,6-dioxabicyclo[3,3,0]octan-1-yl)-3-fluorophenyl]-2-oxo-5-oxazolidinyl]methyl]acetamide], the figures for the MIC in the test on S. aureus UC® 9213 (setting [1]) and in the test on S. pneumoniae UC® 9912 (setting [2]) were 32 µg/mL (≈ 81.3 µM) and 8 µg/mL (≈ 20.3 µM), respectively.

Turning to `CC(=O)NC[C@H]1CN(c2ccc(N3C[C@@H](O)[C@@H](O)C3)c(F)c2)C(=O)O1` [Example 9, (S)-N-[[3-[4-(3,4-cis-dihydroxypyrrolidinyl)-3-fluorophenyl]-2-oxo-5-oxazolidinyl]methyl]acetamide], the MIC in the test with S. aureus UC® 9213 (setting [1]) was 8 µg/mL (≈ 22.6 µM); in the test on S. pneumoniae UC® 9912 (setting [2]), 2 µg/mL (≈ 5.66 µM).

`CC(=O)NC[C@H]1CN(c2ccc(N3CCC(O)C3)c(F)c2)C(=O)O1` (stereo partly drawn) [Example 10, (S)-N-[[3-[4-(3-hydroxypyrrolidinyl)-3-fluorophenyl]-2-oxo-5-oxazolidinyl]methyl]acetamide]: the MIC with S. aureus UC® 9213 (setting [1]) amounted to 2 µg/mL (≈ 5.93 µM); with S. pneumoniae UC® 9912 (setting [2]), 1 µg/mL (≈ 2.96 µM).

With `CC(=O)NC[C@H]1CN(c2ccc(N3CCC(=O)C3)c(F)c2)C(=O)O1` [Example 11, (S)-N-((3-(3-fluoro-4-(3-oxopyrrolidinyl)phenyl)-2-oxo-5-oxazolidinyl)methyl)acetamide], the MIC came out at 4 µg/mL (≈ 11.9 µM) with S. aureus UC® 9213 (setting [1]) and 2 µg/mL (≈ 5.96 µM) in the test on S. pneumoniae UC® 9912 (setting [2]).

As to `CC(=O)NC[C@H]1CN(c2ccc(N3CCC(NC(=O)COCc4ccccc4)C3)c(F)c2)C(=O)O1` (stereo partly drawn) [Example 12, (S)-N-((3-(3-Fluoro-4-(3-(phenylmethoxyacetylamino)pyrrolidinyl)phenyl)-2-oxo-5-oxazolidinyl)methyl)acetamide], the MIC amounted to 8 µg/mL (≈ 16.5 µM) in the test on S. aureus UC® 9213 (setting [1]) and 2 µg/mL (≈ 4.13 µM) in the test on S. pneumoniae UC® 9912 (setting [2]).

For the compound `CC(=O)NC[C@H]1CN(c2ccc(N3CCC(NC(=O)CO)C3)c(F)c2)C(=O)O1` (stereo partly drawn) [Example 13, (S)-N-((3-(3-Fluoro-4-(3-(hydroxyacetylamino)pyrrolidinyl)phenyl)-2-oxo-5-oxazolidinyl)methyl)acetamide], the MIC with S. aureus UC® 9213 (setting [1]) is 16 µg/mL (≈ 40.6 µM); in the test with S. pneumoniae UC® 9912 (setting [2]), 2 µg/mL (≈ 5.07 µM).

Take `CN[C@H](CC(C)C)C(=O)N[C@H]1C(=O)N[C@@H](CC(N)=O)C(=O)N[C@H]2C(=O)N[C@H]3C(=O)N[C@H](C(=O)N[C@H](C(=O)O)c4cc(O)cc(O)c4-c4cc3ccc4O)[C@H](O)c3ccc(c(Cl)c3)Oc3cc2cc(c3O[C@@H]2O[C@H](CO)[C@@H](O)[C@H](O)[C@H]2O[C@H]2C[C@](C)(N)[C@H](O)[C@H](C)O2)Oc2ccc(cc2Cl)[C@H]1O` [vancomycin, reference compound]: the MIC in the test with S. aureus UC® 9213 (UC9213, read-out: Minimum Inhibitory Concentration S. aureus UC® 9213) was found to be 1 µg/mL (≈ 0.69 µM); with S. pneumoniae UC® 9912 (UC9912, read-out: Minimum Inhibitory Concentration S. pneumoniae UC® 9912), 0.5 µg/mL (≈ 0.345 µM).
